Columns and labels:
[1] = test system: fMLP-stimulated H2O2 production in human PMN; test: Adenosine inhibition of fMLP-stimulated H2O2 production in human PMN; assay type: cell-based; details: for IC50: Homo sapiens
human PMN [2] = test: Vitality of human PMN after incubation with inflammatory mediators; assay type: cell-based; details: dead cells after 6 hrs incubation with mediator; mean (± S.E.M.)
human PMN [3] = details: H2O2 production; PMN incubated with mediator for 6 hrs; mean (± S.E.M.)
[4] = PMN pre-incubated with IFN-γ 6 hrs
[5] = PMN pre-incubated with IL-1 6 hrs
[6] = PMN pre-incubated with IL-8 6 hrs
[7] = PMN pre-incubated with LPS 10 μg/ml 6 hrs
[8] = PMN pre-incubated with TNF-α 6 hrs

Nc1ncnc2c1ncn2[C@@H]1O[C@H](CO)[C@@H](O)[C@H]1O [adenosine]
IC50 ([1]; 6 h, control (native) PMN, culture medium 6 hrs): 75 nM
IC50 [1, 4]: 123 nM
IC50 [1, 5]: 40 nM
IC50 [1, 6]: 43 nM
IC50 [1, 7]: 332 nM
IC50 [1, 8]: 106 nM
concentration reaching maximum inhibition ([1]; LPS-incubated PMN): 10^−5 M
increase of the IC50 on the H2O2 production ([1]; LPS-treated (6 hrs) versus native human PMN): 4.4 fold
Max. inhibition (6 S.E.M.) [1, 4]: 86.8 (± 4.3) %
Max. inhibition (6 S.E.M.) [1, 5]: 78.6 (± 2.5) %
Max. inhibition (6 S.E.M.) [1, 6]: 76.3 (± 5.8) %
Max. inhibition (6 S.E.M.) [1, 7]: 75.2 (± 2.5) %
Max. inhibition (6 S.E.M.) [1, 8]: 84.8 (± 3.6) %
Max. inhibition (6 S.E.M.) ([1]; control (native) PMN, culture medium 6 hrs): 78.8 (± 1.5) %
concentration reaching maximum inhibitory effects ([1]; untreated neutrophils): 10^−6 M

TNF-α
PI-positive PMN (human PMN [2]): 2.89 (± 0.39) %
Spontaneous activity (human PMN [3]): 34 (± 1.51) MFI

IL-8: cytokine used for PMN stimulation
PI-positive PMN (human PMN [2]): 1.74 (± 0.36) %
Spontaneous activity (human PMN [3]): 30 (± 1.76) MFI

IFN-γ: cytokine used for PMN stimulation
Spontaneous activity (human PMN [3]): 36 (± 2.37) MFI

B1: IFN-γ: cytokine used for PMN stimulation (protein, UniProt P01579 24-161, looked up)
Interferon gamma: QDPYVKEAENLKKYFNAGHSDVADNGTLFLGILKNWKEESDRKIMQSQIVSFYFKLFKNFKDDQSIQKSVETIKEDMNVKFFNSNKKKRDDFEKLTNYSVTDLNVQRKAIHELIQVMAELSPAAKTGKRKRSQMLFRG
PI-positive PMN (human PMN [2]): 2.76 (± 0.37) %

From PMC3823413 (Journal of Cellular and Molecular Medicine, 2008)
